Assay results reported in patent US7344704B2, “Use of perfluoroalkyl-containing metal complexes as contrast media in MR-imaging for visualization of intravascular thrombi” (Schering AG, priority 2002, dated 2008).

Key:
Assay type in all cases: physicochemical
[1] = Proton relaxivity R^1 in plasma (Minispec P 20); conditions: in plasma (bovine) at 40° C., field strength 0.47 Tesla
Description: As a third criterion, the proton-relaxivity in plasma (R^1) at 40° C. and a field strength of 0.47 tesla are used. The relaxivity, which is indicated in [l/mmol·s], is the quantitative measurement for the shortening of relaxation time T^1 of the protons. For the purpose according to the invention, the relaxivity must be as high as possible and >10 l/mmol·s, preferably >13 l/mmol·s, especially preferably >15 l/mmol·s.
Relaxivity R^1 [l/mmol·s] of the MR-contrast media according to the invention was determined with the Minispec P 20 device of the Bruker Company. The measurements were taken at 40° C. and a field strength of 0.47 tesla. Eight measuring points were recorded by each T1-sequence: 180°-TI-90°, inversion recovery. As a medium, bovine plasma of the Kraeber Company was used. The contrast medium concentrations [mmol/l] in the batches were between 0.30 and 1.16.
The measurements were carried out in plasma at 40° C. and a field strength of 0.47 Tesla.

[2] = Critical micelle formation concentration (CMC) by tensiometry
Description: In aqueous systems, these amphiphilic molecules show the properties that are characteristic of standard surfactants (such as, e.g., sodium dodecylsulfate, SDS). They thus reduce the surface tension of water. By tensiometry, the so-called CMC (critical micelle formation concentration in mol/l) can be determined. In this respect, the surface tension is determined based on the concentration of the substance to be measured. The CMC can be calculated from the plot of the surface tension function (c) that is obtained. The critical micelle formation concentration of the compounds according to the invention must be <10^−3 mol/l, preferably <10^−4 mol/l.
(§1) Both the determination of the CMC and the photon correlation spectroscopy are described in H.-D. Dörfler, “Grenzflächen-und Kolloidchemie [Interface and Colloid Chemistry],” Weinheim, New York, Basel, Cambridge, Tokyo, VSH 1994.

[3] = Hydrodynamic micelle diameter 2 Rh by photon correlation spectroscopy
From the text: The amphiphilic compounds according to the invention are associated in solution and are present as aggregates. The size (2 Rh) of such aggregates (e.g., micelles, rods, wafers, etc.) can be determined with the aid of […] (PCS).
As a second criterion, the hydrodynamic micelle diameter 2 Rh, which must be >1 nm, is therefore used. In particular, those perfluoroalkyl-containing metal complexes according to the invention whose 2 RH≧3 nm, quite especially preferably >4 nm, are suitable.
as §1

Molecule	R^1 (Relaxivity) [1]	CMC (Critical Micelle Formation Concentration) [2]	2 Rh (Hydrodynamic Micelle Diameter) [3]
COCCOCCOCCOCCOCC(=O)NCCCC[C@H](NC(=O)COCCC(F)(F)C(F)(F)C(F)(F)C(F)(F)C(F)(F)C(F)(F)C(F)(F)C(F)(F)F)C(=O)NCC(O)CN1CCN(CC(=O)[O-])CCN(CC(=O)[O-])CCN(CC(=O)[O-])CC1.[Gd+3] (stereo partly drawn) [MK 28, 6-N-3,6,9,12,15-Pentaoxahexadecanoyl-2-N-2H,2H,4H,4H,5H,5H-3-oxaperfluorotridecanoyl-L-lysine-N-{1,4,7-tris[carboxylatomethyl]-1,4,7,10-tetraazacyclododecane-10-(2-hydroxy-3-yl), gadoliniumcomplex}-amide]	27.9 l: mmol · s	8.1e-06 mol/L	4.7 nm
O=C([O-])CN1CCN(CC(=O)[O-])CCN(CC(O)CNC(=O)CNC(=O)CNC(=O)CNC(=O)COCCC(F)(F)C(F)(F)C(F)(F)C(F)(F)C(F)(F)C(F)(F)C(F)(F)C(F)(F)F)CCN(CC(=O)[O-])CC1.[Gd+3] (stereo not drawn) [MK 30, 1,4,7-Tris(carboxylatomethyl)-1,4,7,10-tetraazacyclododecane-10-{2-hydroxy-3-N-[triglycidyl-N-(2H,2H,4H,4H,5H,5H-3-oxa-perfluorotridecanoyl)]amino}-propyl, gadolinium complex]	27.9 l: mmol · s	7e-06 mol/L	7.9 nm
Gadolinium complex of 10-{1-carboxy-2-carbonyl-[piperazin-1-yl-4-(perfluorooctylsulfonyl)]}-ethyl-1,4,7-tris(carboxymethyl)-1,4,7,10-tetraazacyclododecane, Sodium salt [MK 29]	17.7 l: mmol · s	7.6e-05 mol/L	4.8 nm
gadolinium complex of 1,4,7-tris{1,4,7-tris(N-(carboxylatomethyl)-10-[N-1-methyl-3,6-diaza-2,5,8-trioxooctane-1,8-diyl)]-1,4,7,10-tetraazacyclododecane, Gd complex}-10-[N-2H,2H,4H,4H,5H,5H-3-oxa-perfluorotridecanoyl]-1,4,7,10-tetraazacyclododecane [MK 12]	19.5 l: mmol · s	0.00089 mol/L	2.2 nm
